These results are taken from patent publication US7282325B2, “Method of preparing pharmaceutical compositions” (Solvay Pharmaceuticals GmbH, priority 2000, dated 2007).

Structures are written as SMILES.

The subject of experiment [1] is of the 3T3-F442A cell line. Put plainly: Test model according to Hazen et al.: formation of acid-soluble metabolic products of the citric acid cycle. The experiment is classed as cell-based. As to conditions: Adipocyte; rat adipocytes of the 3T3-F442A cell line; read-out: inhibitory effect on the formation of acid-soluble metabolic products of the citric acid cycle (IC50). An excerpt: In a second embodiment of the method according to the invention, compounds suitable for the treatment and/or prophylaxis of obesity can be discovered by selecting those compounds which are capable of reducing the amount of metabolic products formed in the citric acid cycle of isolated living mammalian cells or of lipidic secondary products of the citric acid cycle. […] Citrate is preferred. Furthermore, lipidic secondary products of the citric acid cycle, such as free fatty acids, are suitable as metabolic products. Lastly, in this second embodiment, the ability of the test compounds to inhibit the activity of at least one carboanhydrase occurring in mammals is also determined, although the test model used is set up differently from the first embodiment mentioned. The process of the second embodiment is based on the principle of determining in known manner the uptake of radioactivity from substrates of the citric acid cycle labeled with the ^14C-isotope into metabolic intermediate products or secondary products of the citric acid cycle of isolated, living mammalian cells and comparing the results obtained with the results obtained under otherwise identical conditions, but under the influence of CA-inhibitory compounds. Isolated living cells of rodents such as rats, mice or guinea-pigs, or of man, are preferably used in this variant of the method. Human cells are preferred. […]

For experiment [2], the target named is T1, carboanhydrase of the subtype Va of mice (mCA Va) (Mus musculus, UniProt P23589).
T1 construct: made in house; host or cells: Escherichia coli BL 21 (DE3)
T1 sequence (P23589 30-299): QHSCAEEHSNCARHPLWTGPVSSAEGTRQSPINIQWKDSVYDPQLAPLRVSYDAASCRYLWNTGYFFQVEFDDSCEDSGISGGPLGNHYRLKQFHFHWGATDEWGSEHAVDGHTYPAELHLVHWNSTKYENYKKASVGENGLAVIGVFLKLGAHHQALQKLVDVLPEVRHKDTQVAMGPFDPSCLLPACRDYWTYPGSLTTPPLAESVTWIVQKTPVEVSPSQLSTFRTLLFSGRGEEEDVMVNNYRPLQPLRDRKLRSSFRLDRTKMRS
The experiment is described as follows: 4-nitrophenylacetate-esterase enzyme activity test, mCA Va used at 120 nM. The experiment is classed as biochemical. The following applies: mCA Va obtained by biotechnological processes; enzyme concentration 120 nM; read-out: inhibitory action on carboanhydrase of the subtype Va of mice (IC50).
Protocol: In a departure from the test procedure described by Scozzafava et al, in this case the enzyme mCA Va was used in a concentration of 120 nM. The mCA Va was obtained in known manner by the method described by H. R. Heck et al., Journal of Biological Chemistry 269 (1994) 24742-24746. To this end, the strain of bacteria Escherichia coli BL 21 (DE3) was used, which was used with a plasmid vector which contained the sequence coding for mCA Va under the control of the T7 promoter which can be induced by isopropyl-β-D-thiogalactopyranoside (IPTG). The bacterial culture was inoculated at 37° C. with stirring into a Luria-Bertani liquid medium containing ampicillin (100 μg/ml) and its growth was monitored by spectrophotometry at 600 nm. Once the bacterial culture had entered the exponential growth phase, IPTG was added in a final concentration of 1 mmol/liter. After 3 hours incubation time (37° C. with stirring), the bacterial culture was centrifuged at 7000×g for 15 minutes, and the supernatant was discarded. The resulting pellet was taken up in 0.1 vol twice-distilled water, and lysozyme (100 μg/ml) was added thereto. The cell lysis took place under ultrasound treatment. […] After each ultrasound pulse, the absorption of the samples was determined at 600 nm, for which each 100 μl of a-sample was diluted with 900 μl twice-distilled water. […]

As usually defined, the IC50 is the point on the concentration scale where inhibition reaches its midpoint. For the molecule `CC1(C)O[C@@H]2[C@@H](CO[C@@]3(COS(N)(=O)=O)OC(C)(C)O[C@@H]23)O1` [topiramate], the IC50 in experiment [1] came to 0.348 µM; in experiment [2] it was 0.074 µM.
